Results taken from US9328138B2 (priority 2011, dated 2016).
Where a name gives a salt, the structure may show the parent alone.

Experiments:
[1] = target: HCV NS3 protease genotype 3a (3A-1) (Hepatitis C virus genotype 3a, UniProt Q81258); experiment: HCV NS3 protease time-resolved fluorescence (TRF) assay, genotype 3a; format: biochemical; details: Ki 3a
Outline: (§1)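 Pre-incubation of NS3/NS4A protease with inhibitor for 10 min in pH 7.5 HEPES buffer with 10 mM DTT; 25 nM TRF peptide substrate, hydrolysis 6 h at room temperature. Fluorescence read at ex 340/em 615 nm with 400 μs delay, enzyme level set for S/B 5-20; IC50 by four-parameter fit.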

[2] = target: T1, HCV genotype 1b (BK) NS3 modified enzyme with a R155K mutation (Hepatitis C virus genotype 1b, UniProt P26663, R1181K); experiment: HCV NS3 protease time-resolved fluorescence (TRF) assay, genotype 1b R155K; format: biochemical; details: Ki 1b R155K
T1 construct: HCV genotype 1b (BK) NS3 modified enzyme
Outline: as §1

[3] = genotype 1b (BK) NS3 R155K, single value
[4] = first of two values printed in the cell (not explained)
[5] = second of two values printed in the cell (not explained)

Row | Compound | Ki [1] [nM] | Ki [2, 3] [nM] | Ki [2, 4] [nM] | Ki [2, 5] [nM]
1 | C=C[C@@H]1C[C@]1(NC(=O)[C@@H]1C[C@@H]2CN1C(=O)[C@H](C(C)(C)C)NC(=O)O[C@@H]1CCC[C@H]1CCCCCc1c(nc3ccccc3c1O)O2)C(=O)NS(=O)(=O)C1(COCc2ccccc2)CC1 [Example 36, (3aR,7S,10S,12R,24aR)-N-{(1R,2S)-1-[({1-[(benzyloxy)methyl]cyclopropyl}sulfonyl)carbamoyl]-2-ethenylcyclopropyl}-7-tert-butyl-19-hydroxy-5,8-dioxo-1,2,3,3a,5,6,7,8,11,12, 20,21,22,23,24,24a-hexadeca hydro-10H-9,12-methanocyclopenta[18,19][1,10,3,6] dioxadiazacyclononadecino[11,12-b] quinoline-10-carboxamide] | 3.2 | 0.15 | – | –
2 | C=C[C@@H]1C[C@]1(NC(=O)[C@@H]1C[C@@H]2CN1C(=O)[C@H](C(C)(C)C)NC(=O)O[C@@H]1C[C@H]1CCCCCc1c(nc3ccccc3c1OCCN1CCCCC1)O2)C(=O)NS(=O)(=O)C1(C)CC1 [Example 134, (1aR,5S,8S,10R,22aR)-5-tert-butyl-N-[(1R,2S)-2-ethenyl-1-{[(1-methylcyclopropyl)sulfonyl]carbamoyl}cyclopropyl]-3,6-dioxo-17-[2-(piperidin-1-yl)ethoxy]-1,1a,3,4,5,6,9,10,18,19,20,21,22,22a-tetradeca hydro-8H-7,10-methano cyclopropa[18,19][1,10,3,6]dioxadiazacyclo nonadecino[11,12-b]quinoline-8-carboxamide] | 6.1 | 0.56 | – | –
3 | C=C[C@@H]1C[C@]1(NC(=O)[C@@H]1C[C@@H]2CN1C(=O)[C@H](C1CCCCC1)NC(=O)O[C@@H]1C[C@H]1CCCCCc1c(nc3ccccc3c1OC1CC3CCC(C1)N3CCOC)O2)C(=O)NS(=O)(=O)C1(C)CC1 (stereo partly drawn) [Example 284, (1aR,5S,8S,10R,22aR)-5-cyclohexyl-N-[(1R,2S)-2-ethenyl-1-{[(1-methylcyclopropyl)sulfonyl]carbamoyl}cyclopropyl]-17-{[8-(2-methoxyethyl)-8-azabicyclo[3.2.1]oct-3-yl]oxy}-3,6-dioxo-1,1a,3,4,5,6,9,10,18,19,20,21,22,22a-tetradecahydro-8H-7,10-methanocyclopropa[18,19][1,10,3,6]dioxadiazacyclononadecino[11,12-b]quinoline-8-carboxamide] | 0.28 | – | 0.023 | 0.053
4 | C=C[C@@H]1C[C@]1(NC(=O)[C@@H]1C[C@@H]2CN1C(=O)[C@H](C1CCCCC1)NC(=O)O[C@@H]1C[C@H]1CCCCCc1c(nc3ccccc3c1OC1CCN(CC(F)(F)F)CC1)O2)C(=O)NS(=O)(=O)C1(C)CC1 [Example 236, 4-{[(1aR,5S,8S,10R,22aR)-5-cyclohexyl-8-{[(1R,2S)-2-ethenyl-1-{[(1-methylcyclopropyl)sulfonyl]carbamoyl}cyclopropyl]carbamoyl}-3,6-dioxo-1,1a,3,4,5,6,9,10,18,19,20,21,22,22a-tetradecahydro-8H-7,10-methanocyclopropa[18,19][1,10,3,6]dioxadiazacyclononadecino[11,12-b]quinolin-17-yl]oxy}-1-(2,2,2-trifluoroethyl)piperidinium formate] | 110 | – | 0.33 | 5.44
5 | C=C[C@@H]1C[C@]1(NC(=O)[C@@H]1C[C@@H]2CN1C(=O)[C@H](C1CCCCC1)NC(=O)O[C@@H]1C[C@H]1CCCCCc1c(nc3ccccc3c1OC1CCN(C(=O)OC(C)(C)C)CC1)O2)C(=O)NS(=O)(=O)C1(C)CC1 [Example 235, tert-butyl 4-{[(1aR,5S,8S,10R,22aR)-5-cyclohexyl-8-{[(1R,2S)-2-ethenyl-1-{[(1-methylcyclopropyl)sulfonyl]carbamoyl}cyclopropyl]carbamoyl}-3,6-dioxo-1,1a,3,4,5,6,9,10,18,19,20,21,22,22a-tetradecahydro-8H-7,10-methanocyclopropa[18,19][1,10,3,6]dioxadiazacyclononadecino[11,12-b]quinolin-17-yl]oxy}piperidine-1-carboxylate] | 203 | – | 0.53 | 4.36
6 | C=C[C@@H]1C[C@]1(NC(=O)[C@@H]1C[C@@H]2CN1C(=O)[C@H](C(C)(C)C)NC(=O)O[C@@H]1C[C@H]1CCCCCc1c(nc3ccccc3c1OC1CNC1)O2)C(=O)NS(=O)(=O)C1(C)CC1 [Example 222, (1aR,5S,8S,10R,22aR)-17-(azetidin-3-yloxy)-5-tert-butyl-N-[(1R,2S)-2-ethenyl-1-{[(1-methylcyclopropyl)sulfonyl]carbamoyl}cyclopropyl]-3,6-dioxo-1,1a,3,4,5,6,9,10,18,19,20,21,22,22a-tetradecahydro-8H-7,10-methanocyclopropa[18,19][1,10,3,6]dioxadiazacyclononadecino[11,12-b]quinoline-8-carboxamide] | 0.44 | 0.045 | – | –
7 | C=C[C@@H]1C[C@]1(NC(=O)[C@@H]1C[C@@H]2CN1C(=O)[C@H](C1CCCCC1)NC(=O)O[C@@H]1C[C@H]1CCCCCc1c(nc3ccccc3c1OCCCNC1CC1)O2)C(=O)NS(=O)(=O)C1(C)CC1 [Example 241, N-(3-{[(1aR,5S,8S,10R,22aR)-5-cyclohexyl-8-{[(1R,2S)-2-ethenyl-1-{[(1-methylcyclopropyl)sulfonyl]carbamoyl}cyclopropyl]carbamoyl}-3,6-dioxo-1,1a,3,4,5,6,9,10,18,19,20,21,22,22a-tetradecahydro-8H-7,10-methanocyclopropa[18,19][1,10,3,6]dioxadiazacyclononadecino[11,12-b]quinolin-17-yl]oxy}propyl)cyclopropanaminium formate] | 2.79 | – | 0.021 | 0.162
8 | C=C[C@@H]1C[C@]1(NC(=O)[C@@H]1C[C@@H]2CN1C(=O)[C@H](C(C)(C)C)NC(=O)O[C@@H]1CCC[C@H]1CCCCCc1c(nc3ccccc3c1O)O2)C(=O)NS(=O)(=O)C1(C(=C)C)CC1 [Example 37, (3aR,7S,10S,12R,24aR)-7-tert-butyl-N-[(1R, 2S)-2-ethenyl-1-({[1-(prop-1-en-2-yl)cyclopropyl]sulfonyl}carbamoyl)cyclopropyl]-19-hydroxy-5,8-dioxo-1,2,3,3a,5,6,7,8,11,12,20, 21,22,23,24,24a-hexadecahydro-10H-9,12-methanocyclopenta[18,19][1,10,3,6] dioxadiazacyclononadecino[11,12-b]quinoline-10-carboxamide] | 6 | 0.16 | – | –
9 | CC[C@@H]1C[C@]1(NC(=O)[C@@H]1C[C@@H]2CN1C(=O)[C@H](C1CCCC1)NC(=O)O[C@@H]1CCC[C@H]1CC/C=C/Cc1c(nc3ccccc3c1OC)O2)C(=O)NS(=O)(=O)C1CC1 [Example 5, (3aR,7S,10S,12R,21E,24aS)-7-cyclopentyl-N-{(1R,2R)-1-[(cyclopropylsulfonyl)carbamoyl]-2-ethylcyclopropyl}-19-methoxy-5,8-dioxo-1,2,3,3a, 5,6,7,8,11,12,20,23,24,24a-tetradecahydro-10H-9,12-methanocyclopenta[18,19][1,10,3,6] dioxadiazacyclononadecino[11,12-b]quinoline-10-carboxamide] | 17 | 0.59 | – | –
10 | C=C[C@@H]1C[C@]1(NC(=O)[C@@H]1C[C@@H]2CN1C(=O)[C@H](C(C)(C)C)NC(=O)O[C@@H]1C[C@H]1CCCCCc1c(nc3ccccc3c1OC1CCN(C3CC3)CC1)O2)C(=O)NS(=O)(=O)C1(C)CC1 [Example 220, (1aR,5S,8S,10R,22aR)-5-tert-butyl-17-[(1-cyclopropylpiperidin-4-yl)oxy]-N-[(1R,2S)-2-ethenyl-1-{[(1-methylcyclopropyl)sulfonyl]carbamoyl}cyclopropyl]-3,6-dioxo-1,1a,3,4,5,6,9,10,18,19,20,21,22,22a-tetradecahydro-8H-7,10-methanocyclopropa[18,19][1,10,3,6] dioxadiazacyclononadecino[11,12-b]quinoline-8-carboxamide] | 3.9 | 0.29 | – | –
11 | C=C[C@@H]1C[C@]1(NC(=O)[C@@H]1C[C@@H]2CN1C(=O)[C@H](C(C)(C)C)NC(=O)O[C@@H]1C[C@H]1CCCCCc1c(nc3ccccc3c1OC)O2)C(=O)NS(=O)(=O)C1(C)CC1 [Example 119] | 3.2 | 0.12 | – | –
12 | CC[C@@H]1C[C@]1(NC(=O)[C@@H]1C[C@@H]2CN1C(=O)[C@H](C1CCCC1)NC(=O)O[C@@]1(C)CCC[C@@H]1CCCCCc1c(nc3ccccc3c1O)O2)C(=O)NS(=O)(=O)C1CC1 [Example 31, (3aS,7S,10S,12R,24aS)-7-cyclopentyl-N-{(1R,2R)-1-[(cyclopropylsulfonyl)carbamoyl]-2-ethylcyclopropyl}-19-hydroxy-3a-methyl-5,8-dioxo-1,2,3-3a,5,6,7,8,11,12,20,21,22,23,24,24a-hexadeca hydro-10H-9,12-methanocyclopenta[18,19] [1,10,3,6]dioxadiazacyclononadecino[11,12-b] quinoline-10-carboxamide] | 23 | 4.1 | – | –
13 | C=C[C@@H]1C[C@]1(NC(=O)[C@@H]1C[C@@H]2CN1C(=O)[C@H](C1CCCC1)NC(=O)O[C@@H]1CCC[C@H]1CC/C=C/Cc1c(nc3ccccc3c1OCC(=O)N1CCCC1)O2)C(=O)NS(=O)(=O)C1CC1 [Example 67, (3aR,7S,10S,12R,21E,24aS)-7-cyclopentyl-N-{(1R,2S)-1-[(cyclopropylsulfonyl)carbamoyl]-2-ethenylcyclopropyl}-5,8-dioxo-19-[2-oxo-2-(pyrrolidin-1-yl)ethoxy]-1,2,3,3a,5,6,7,8,11,12,20,23,24,24a-tetradecahydro-10H-9,12-methanocyclopenta[18,19][1,10,3,6]dioxadiazacyclononadecino[11,12-b]quinoline-10-carboxamide] | 6.6 | 0.081 | – | –
